Data on one molecule can be found in article PMC11320734 (ACS Pharmacology & Translational Science, 2024).

One data set can be described thus: Microsomal clearance. Type of data set: in vitro ADME. As to conditions: rat, rat microsomes.
Another data set concerns the target T1, CYP450 2C9 (Homo sapiens, UniProt P11712).
T1 construct: pooled human liver microsomes; from tissue; host or cells: pooled human liver microsomes
Briefly: CYP inhibition in pooled human liver microsomes. The class given is in vitro ADME. The method, then: (§1) Cytochrome P450 (CYP) assays were conducted as previously described.[41] In brief, RNB-61 was incubated at a range of concentrations with the following components: pooled human liver microsomes, CYP probe substrate around the reported Km, and NADPH with a final concentration: 1 mM in 100 mM sodium phosphate buffer (pH 7.4). The conditions were optimized for a linear metabolic rate for the probe substrate reactions. The analysis of the samples was carried out by LC-MS/MS. The assays generated two endpoints: IC50 (μM) and percent inhibition at the highest acceptable test concentration (typically 50 μM; lower if the highest concentration data are rejected due to insolubility). […] (GSH) adduct formation data was assessed as reported in a previous study.[42] Briefly, RNB-61 was incubated with human liver microsomes to form reactive metabolites, and glutathione was added as a nucleophile to convert the reactive metabolites into stable conjugates that could be analyzed by MS.
(Liver microsomes are a subcellular fraction often used to study metabolism.)

The target of the next data set is T2, CYP450 2D6 (Homo sapiens, UniProt P10635).
T2 construct: pooled human liver microsomes; from tissue; host or cells: pooled human liver microsomes
T2 sequence (P10635 whole entry): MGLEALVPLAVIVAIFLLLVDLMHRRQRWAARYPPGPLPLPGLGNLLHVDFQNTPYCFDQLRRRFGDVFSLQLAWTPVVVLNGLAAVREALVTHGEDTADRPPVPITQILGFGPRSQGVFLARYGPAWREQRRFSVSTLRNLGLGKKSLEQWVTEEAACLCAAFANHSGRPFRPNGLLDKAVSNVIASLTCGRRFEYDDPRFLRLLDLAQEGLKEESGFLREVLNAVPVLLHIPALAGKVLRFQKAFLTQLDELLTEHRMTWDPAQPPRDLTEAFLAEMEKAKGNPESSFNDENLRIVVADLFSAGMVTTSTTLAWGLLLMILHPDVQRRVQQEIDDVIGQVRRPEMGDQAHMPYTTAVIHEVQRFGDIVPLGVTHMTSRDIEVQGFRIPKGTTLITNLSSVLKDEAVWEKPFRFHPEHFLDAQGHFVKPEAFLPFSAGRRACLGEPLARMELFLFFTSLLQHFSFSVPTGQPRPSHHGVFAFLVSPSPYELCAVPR
The experiment in a line: CYP inhibition in pooled human liver microsomes. The class given is in vitro ADME. The method, then: as §1

Another data set concerns the target T3, CYP450 3A4 (Homo sapiens, UniProt P08684).
T3 construct: pooled human liver microsomes; from tissue; host or cells: pooled human liver microsomes
Briefly: CYP inhibition in pooled human liver microsomes. The class given is in vitro ADME. As for the experimental part:
as §1

The nature of data set [1]: Single-dose pharmacokinetics in mice. The class given is in vivo. As to conditions: mouse, plasma. The method, then:
To characterize the pharmacokinetic behavior of RNB-61, studies in rodents were conducted at the in vivo facility of F. Hoffmann-La Roche Ltd. (Basel, Switzerland). The plasma-concentration time profile was studied in rodents after single-dose RNB-61 administration by oral gavage (p.o. microsuspension excipients 7.5% gelatin/0.62% NaCl) and intravenous bolus injection (i.v. solution, excipients NMP:NaCl (30:70)). Three groups of male Wistar rats (n = 2 per group) were administered RNB-61 either at 1 mg kg^–1 i.v., 3 mg kg^–1 p.o., or 26 mg kg^–1 p.o. Plasma samples were drawn at 0.083, 0.25, 0.5, 1, 2, 4, 8, and 24 postdose in the i.v. group and at 0.25, 0.5, 0.75, 1.5, 3, 5, 8, and 24 h postdose in the p.o. groups. The samples were analyzed for RNB-61 concentration by LC/MS-MS. For the LC/MS-MS analysis, and the samples were prepared by adding 100 uL to 400 uL ACN with ISTD (100 ng/mL Bosantan in ACN/MeOH 1/1), stirring, and centrifuging (4000 rpm, 65’). 100 uL of the supernatant were pipetted and diluted with 400 μL H2O at pH 3. The analytes were separated on a Restek C18 column (5 μm, 1.0 × 3 mm). The mobile phase consisted of water containing 0.1% HCOOH as solvent A and ACN containing 0.1% HCOOH as solvent B. The gradient curve starting with 5% B was changed to 90% B between 0.4 and 0.6 min and further increased to 95% B between 0.6 and 1.2 min. This was maintained until 1.4 min and then reduced and kept at 5% B between 1.45 and 2.0 min. The mass spectrometer was operated in the positive mode. All LC-MS/MS was done using the Agilent RapidFire Analyzer software (version 4.3). The pharmacokinetic parameters were estimated by noncompartmental analysis in the Certara WinNonlin software (version 5.3). A similar study design was run in mice with three groups receiving 2 mg kg^–1 i.v., 4 mg kg^–1 p.o., or 26 mg kg^–1 p.o., and plasma sampling occurring in a composite profile (n = 2 for each time point) up to 7 or 24 h postdose. Male C57/BL6 mice (n = 5 per group) were used to study the influence of P-gp efflux on brain penetration. Two groups of mice were administered RNB-61 by i.v. bolus injection at 1 mg kg^–1 (2 groups). In order to block P-gp activity, an i.v. bolus of 5 mg kg^–1 tariquidar[46] was injected into one group 30 min prior to RNB-61. Plasma was collected at 0.083, 0.25, 0.5, 2, 4, and 7 h postdose in a composite profile. Brain, CSF, and vitreous body were collected at terminal time points 0.5, 2, 4, and 7 h postdose.

Data set [2] deals with UUO-induced kidney fibrosis. Briefly: Unilateral ureteral obstruction (UUO) model of kidney fibrosis. The class given is in vivo, Sprague–Dawley rats. The method, then:
In the ischemia/reperfusion (I/R) model of acute kidney injury (AKI),[47],[48] the compounds were administered orally by gavage to C57BL/6 mice 30 min before ischemia obtained by clamping both renal arteries and veins for 25 min, followed by 24 h of reperfusion. Mice were anesthetized using xylazine (10 mg kg^–1)/ketamine (100 mg kg^–1) injected intraperitoneally. Sham treated mice were treated identically except for the temporary closure of the renal vessels. After 24 h, under reanesthesia, plasma was taken for biomarker analysis. Thereafter, mice still in deep anesthesia were sacrificed by cervical dislocation. Creatinine, BUN (blood urea nitrogen), NGAL (neutrophil gelatinase-associated lipocalin), osteopontin, and KIM1 (kidney injury molecule-1) levels were determined using the following commercially available standard assays: creatinine: Roche Diagnostics 03263991, BUN: Roche Diagnostics 04460715, NGAL: BioPorto, Kit046 + Kit042, osteopontin: R&D Systems, MOST00, KIM-1: Abnova, KA1064. To assess fibrotic effects, we used the unilateral ureteral obstruction (UOO) model in Sprague–Dawley rats.[49] For the UOO model, rats were sacrificed after 5, 8, and 11 days and the percentage of PicroSirius Red positive areas (indicator of collagen III–I deposition) were measured in 4 μm histological cross sections of the kidney after 2% paraformaldehyde perfusion fixation and paraffin embedding. The extend of kidney fibrosis was quantified based on PicroSirius Red staining of 10 renal sections about 1 mm apart from each kidney. The collagen–III-I-positive pixel counts were determined in the cortical aspect of each kidney section from 10 optical fields using a 40× objective. As the total area analyzed was identical for all kidneys under investigation, the absolute number of pixels was used as the relevant readout. Vehicle treated animals received saline gavage only. The details of PicroSirius Red staining were previously described.[22]

T1 sequence (P11712 whole entry): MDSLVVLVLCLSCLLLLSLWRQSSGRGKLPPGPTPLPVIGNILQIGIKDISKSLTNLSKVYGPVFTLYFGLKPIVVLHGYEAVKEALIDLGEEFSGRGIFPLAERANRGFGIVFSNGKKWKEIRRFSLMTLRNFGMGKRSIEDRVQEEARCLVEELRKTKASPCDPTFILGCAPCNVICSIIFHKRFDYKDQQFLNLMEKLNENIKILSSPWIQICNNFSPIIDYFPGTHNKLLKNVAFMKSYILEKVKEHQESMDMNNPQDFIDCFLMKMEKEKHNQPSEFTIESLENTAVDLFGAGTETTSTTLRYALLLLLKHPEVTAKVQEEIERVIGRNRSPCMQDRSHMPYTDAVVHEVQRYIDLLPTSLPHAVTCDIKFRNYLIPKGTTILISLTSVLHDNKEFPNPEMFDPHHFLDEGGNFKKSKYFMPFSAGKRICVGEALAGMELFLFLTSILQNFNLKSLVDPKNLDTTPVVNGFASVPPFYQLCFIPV
T3 sequence (P08684 whole entry): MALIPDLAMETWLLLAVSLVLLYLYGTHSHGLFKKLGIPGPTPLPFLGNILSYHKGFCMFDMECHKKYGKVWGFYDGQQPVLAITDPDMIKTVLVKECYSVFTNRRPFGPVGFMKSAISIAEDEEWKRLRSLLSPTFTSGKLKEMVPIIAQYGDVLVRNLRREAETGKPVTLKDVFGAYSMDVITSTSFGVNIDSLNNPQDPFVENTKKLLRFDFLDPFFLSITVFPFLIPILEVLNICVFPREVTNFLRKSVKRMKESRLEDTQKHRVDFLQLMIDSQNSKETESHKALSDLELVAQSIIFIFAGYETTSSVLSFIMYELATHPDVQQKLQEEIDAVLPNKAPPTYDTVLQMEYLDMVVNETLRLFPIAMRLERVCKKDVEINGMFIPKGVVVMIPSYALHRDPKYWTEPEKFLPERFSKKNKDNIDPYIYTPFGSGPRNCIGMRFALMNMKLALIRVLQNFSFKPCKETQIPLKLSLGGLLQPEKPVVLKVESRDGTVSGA

Take `Cn1c(C(C)(C)C)cc(=NC(=O)c2cc(C(F)(F)F)ccc2OCC(C)(C)O)n1CC1CCC1` [RNB-61]: in the data set “Microsomal clearance” (Table 1), the intrinsic clearance (microsomal CLint) (in general, the rate of metabolic loss divided by the concentration) is < 10 µL/min/mg. Besides, in the data set “Microsomal clearance” (Table 3), the intrinsic clearance (microsomal CLint) was ≤ 10 µL/min/mg. Moreover, the concentration for half-maximal inhibition (IC50) (commonly the point on the concentration scale where inhibition reaches its midpoint) against CYP450 2C9 was 50 µM. On CYP450 2D6, this molecule gave a half-inhibitory concentration (IC50) of 15.5 µM. The half-inhibitory concentration (IC50) at CYP450 3A4 was found to be 35.5 µM. Further, in data set [1] (iv, 2 mg kg^–1 i.v.), the AUC(0-inf) – broadly, total exposure, with the tail of the curve extrapolated – worked out at 8630 ng·h/mL; the highest concentration (Cmax) – broadly, the maximum level reached in the sampled fluid or tissue – turned out to be 1170 ng/mL; the Tmax (usually the time from dosing to the highest level) is 0.25 h; the clearance – broadly, the rate of elimination divided by the concentration – is 3.9 mL/min/kg. Further, the half-life (commonly how long it takes for the measured level to halve) in data set [1] (iv, 2 mg kg^–1 i.v.) is 7.7 h. Moreover, the Vd in data set [1] (iv, 2 mg kg^–1 i.v., read-out: Vss) was 2.4 L/kg. Besides, in data set [1] (po, 4 mg kg^–1 p.o.), the area under the curve AUC(0-inf) came to 9300 ng·h/mL; the maximum concentration (Cmax) turned out to be 843 ng/mL; the time of peak concentration (Tmax) came to 2 h; the bioavailability (usually the share of a dose that reaches the circulation, judged against a reference dose that is usually intravenous) was 54%. The half-life in data set [1] (po, 4 mg kg^–1 p.o.) is 6.4 h. Besides, in data set [1] (po, 26 mg kg^–1 p.o.), the AUC(0-inf) came to 47300 ng·h/mL, the maximum concentration (Cmax) came to 4370 ng/mL, the Tmax amounted to 2 h and the bioavailability amounted to 42%. In data set [1] (po, 26 mg kg^–1 p.o.), this molecule had a half-life of 4.3 h. Moreover, the “inhibition of accumulation of collagen–III-I” value in data set [2] (3 mg kg^–1, day 8) is 61%. Further, the “collagen–III-I positive area vs vehicle” value in data set [2] (all three doses (printed 0.3, 3, and 3 mg kg^–1), day 8) was “significant reduction”.
